Results published in ChEMBL document CHEMBL1136305, “Structure-activity relationships within a series of caspase inhibitors: effect of leaving group modifications” (Bioorg Med Chem Lett, 2003).

Legend:
Caspase-3 (Homo sapiens) = biological target: T1, Caspase-3 (Homo sapiens) (UniProt P42574); assay: Inhibitory activity against caspase-3 (Csp-3)
T1 sequence (whole entry): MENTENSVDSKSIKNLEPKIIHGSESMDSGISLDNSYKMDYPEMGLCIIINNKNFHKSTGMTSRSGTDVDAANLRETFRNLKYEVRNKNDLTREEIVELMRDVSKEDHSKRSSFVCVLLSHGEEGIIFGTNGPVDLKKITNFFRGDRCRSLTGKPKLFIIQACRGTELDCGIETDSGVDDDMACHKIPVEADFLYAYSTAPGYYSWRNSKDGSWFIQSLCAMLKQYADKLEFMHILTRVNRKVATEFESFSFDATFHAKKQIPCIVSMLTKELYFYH

[1] = Cellular assay in a model of neuronal apoptosis involving cortical neurons exposed to concanavalin A; type: functional
Caspase-1 (Mus musculus) = biological target: T2, Caspase-1 (Mus musculus) (UniProt P29452); assay: Inhibitory activity against murine caspase-1
T2 sequence (whole entry): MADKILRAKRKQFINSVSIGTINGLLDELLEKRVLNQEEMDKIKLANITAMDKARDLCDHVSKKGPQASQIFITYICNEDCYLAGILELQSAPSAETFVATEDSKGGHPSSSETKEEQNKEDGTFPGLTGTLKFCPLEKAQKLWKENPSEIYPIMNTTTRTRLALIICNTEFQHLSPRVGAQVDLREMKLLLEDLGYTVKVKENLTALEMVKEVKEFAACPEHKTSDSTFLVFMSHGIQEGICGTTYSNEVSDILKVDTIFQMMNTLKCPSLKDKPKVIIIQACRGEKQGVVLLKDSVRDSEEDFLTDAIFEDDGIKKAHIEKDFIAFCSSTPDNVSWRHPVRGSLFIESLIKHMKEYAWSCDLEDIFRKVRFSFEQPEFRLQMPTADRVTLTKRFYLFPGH

Caspase-8 (Homo sapiens) = Caspase-8 (Homo sapiens) (UniProt Q14790); assay: Inhibitory activity against caspase-8 (Csp-8)
Homo sapiens = species on record: Homo sapiens; assay: Cellular assay in an inflammation model measuring IL1-beta secretion from isolated human monocytes induced with Staph A; type: functional
Jurkat = assay: Cellular assay in a Fas-induced model of apoptosis in Jurkat cells; type: functional, cell-based; details: Homo sapiens
Caspase-6 (Homo sapiens) = biological target: T3, Caspase-6 (Homo sapiens) (UniProt P55212); assay: Inhibitory activity against caspase-6 (Csp-6)
T3 sequence (whole entry): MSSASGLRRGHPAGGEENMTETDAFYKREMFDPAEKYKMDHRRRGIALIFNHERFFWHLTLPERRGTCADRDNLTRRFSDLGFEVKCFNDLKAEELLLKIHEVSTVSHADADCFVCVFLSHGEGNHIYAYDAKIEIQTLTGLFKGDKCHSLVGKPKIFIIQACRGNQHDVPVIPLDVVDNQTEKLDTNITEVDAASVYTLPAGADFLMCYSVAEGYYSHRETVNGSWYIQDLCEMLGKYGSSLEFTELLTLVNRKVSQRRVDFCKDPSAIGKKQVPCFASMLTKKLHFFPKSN

Sequence of Caspase-8 (Homo sapiens) (Q14790 217-374 limits assumed): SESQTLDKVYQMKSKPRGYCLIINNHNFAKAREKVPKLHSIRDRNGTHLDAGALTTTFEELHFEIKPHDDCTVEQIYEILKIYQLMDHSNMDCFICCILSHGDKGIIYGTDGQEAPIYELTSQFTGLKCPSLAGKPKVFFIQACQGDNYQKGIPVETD
Sequence of Caspase-8 (Homo sapiens) (Q14790 385-479 limits assumed): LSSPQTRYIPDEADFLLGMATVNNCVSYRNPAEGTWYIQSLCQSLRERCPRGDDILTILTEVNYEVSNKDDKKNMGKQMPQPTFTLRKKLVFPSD

SMILES	k3/Ki (Caspase-3 (Homo sapiens)) [M⁻¹ s⁻¹]	IC50 [1] [µM]	k3/Ki (Caspase-1 (Mus musculus)) [M⁻¹ s⁻¹]	k3/Ki (Caspase-8 (Homo sapiens)) [M⁻¹ s⁻¹]	IC50 (Homo sapiens) [µM]	IC50 (Jurkat) [µM]	k3/Ki (Caspase-6 (Homo sapiens)) [M⁻¹ s⁻¹]
CC(C)[C@H](NC(=O)COc1cccc2ccccc12)C(=O)N[C@@H](CC(=O)O)C(=O)COc1cccc(OC(F)(F)F)c1	30600	> 50	1410	359	15.4	> 100	–
CC(C)[C@H](NC(=O)COc1cccc2ccccc12)C(=O)N[C@@H](CC(=O)O)C(=O)COc1ccc(OC(F)(F)F)cc1	10500	> 50	2360	2420	–	29.1	776
CC(C)[C@H](NC(=O)COc1cccc2ccccc12)C(=O)N[C@@H](CC(=O)O)C(=O)COc1c(F)c(F)c(F)c(F)c1F	56600	–	14700	8040	8.89	3.05	13600
CC(C)[C@H](NC(=O)COc1cccc2ccccc12)C(=O)N[C@@H](CC(=O)O)C(=O)COc1ccc(C(N)=O)cc1	17700	> 50	3650	–	–	> 100	744
CC(C)[C@H](NC(=O)COc1cccc2ccccc12)C(=O)N[C@@H](CC(=O)O)C(=O)COc1ccc(F)cc1F	21700	> 50	8400	628	17.6	33.2	–
CC(C)[C@H](NC(=O)COc1cccc2ccccc12)C(=O)N[C@@H](CC(=O)O)C(=O)COP(=O)(c1ccccc1)c1ccccc1	351000	–	143000	59300	3.48	18.4	39700
CC(C)[C@H](NC(=O)COc1cccc2ccccc12)C(=O)N[C@@H](CC(=O)O)C(=O)COc1cc(C(F)(F)F)cc(C(F)(F)F)c1	5350	> 50	783	68	–	> 100	193
CC(C)[C@H](NC(=O)COc1cccc2ccccc12)C(=O)N[C@@H](CC(=O)O)C(=O)COc1ccccc1F	26800	15	6020	233	15.7	> 100	–
CC(C)[C@H](NC(=O)COc1cccc2ccccc12)C(=O)N[C@@H](CC(=O)O)C(=O)COc1ccc(F)cc1	8560	> 50	9120	699	14.3	> 100	–
CC(C)[C@H](NC(=O)COc1cccc2ccccc12)C(=O)N[C@@H](CC(=O)O)C(=O)COc1ccc(C(=O)c2ccccc2)cc1	17700	–	1520	21	–	> 100	–
CC(=O)Nc1cccc(OCC(=O)[C@H](CC(=O)O)NC(=O)[C@@H](NC(=O)COc2cccc3ccccc23)C(C)C)c1	4900	> 50	612	–	–	> 100	–
CC(C)[C@H](NC(=O)COc1cccc2ccccc12)C(=O)N[C@@H](CC(=O)O)C(=O)COc1ccc2oc(=O)sc2c1	5890	–	2240	130	25.7	> 100	81
CC(C)[C@H](NC(=O)COc1cccc2ccccc12)C(=O)N[C@@H](CC(=O)O)C(=O)COc1cccc(F)c1F	28800	5.2	14800	197	–	–	1610
CC(C)[C@H](NC(=O)COc1cccc2ccccc12)C(=O)N[C@@H](CC(=O)O)C(=O)COc1c(F)ccc(F)c1F	188000	2.43	47100	17000	–	1.2	81700
CC(C)[C@H](NC(=O)COc1cccc2ccccc12)C(=O)N[C@@H](CC(=O)O)C(=O)COc1cccc(C(F)(F)F)c1	7980	> 50	2450	150	16.6	> 100	–
